Data set [1] deals with Tau phosphorylation at Serin396 in differentiated SH-SY5Y cells. The data set is described as follows: In vitro SH-SY5Y assay using tau phosphorylation. It counts as cell-based, human. The conditions noted are these: RA- and BDNF-differentiated SH-SY5Y cells, 90-120 min incubation, Western Blot or ELISA. The procedure:
The human neuroblastoma cell line SH-SY5Y can be utilized as an in vitro model to investigate CDK5 function and the efficacy of CDK5 specific inhibitors. SH-SY5Y cells express tau protein which harbors various phosphorylation sites known to be phosphorylated by several kinases including CDK5. SH-SY5Y cells can be differentiated into neuron-like cells by exposure to 10 μM all trans-retinoic acid for 3 days and subsequent exposure to 50 ng/ml human recombinant brain-derived neurotrophic factor for 3-5 days, thereby upregulating neuronal markers, including tau protein. In addition CDK5 and p35 protein levels were increased during differentiation. RA-BDNF-differentiated cells can therefore serve as a suitable model for studying tau phosphorylation and to screen potential CDK5 inhibitors (Jämsä et al., 2004. BBRC 319; 993-1000). […]
Concentrations of total tau, pS396 tau and pT231 tau within the cell culture lysates are measured by using commercial ELISA Kits (BioSource: human total tau: KHB0042; human pS396 tau: KHB7031; human pT231 tau: KHB7051) according to the manufacturers instructions or by using Western Blots probing with total and phospho-specific antibodies (antibodies: total tau: Santa Cruz, sc-21796; pS396 tau: Santa Cruz, sc-12414; pT231 tau, AT180: Pierce Endogen, MN1040; pS202 tau: AT8: Pierce Endogen, MN1020). […]

SMILES strings stand for the structures.

Data on 3 compounds can be found in US8389521B2, “Inhibitors of protein kinases” (Ingenium Pharmaceuticals GmbH, priority 2007, dated 2013).

Turning to `CCOc1ccccc1-c1cc(Nc2ccc(CS(N)(=O)=O)cc2)ncn1` [Compound 6, {4-[6-(2-Ethoxy-phenyl)-pyrimidin-4-ylamino]-phenyl}-methanesulfonamide], the melting point was 213.5 to 215.1 °C.

In turn, `COCCCNS(=O)(=O)Cc1cccc(Nc2cc(-c3ccccc3OC)ncn2)c1` [Reference Compound 3, C-{3-[6-(2-methoxy-phenyl)-pyrimidin-4-ylamino]-phenyl}-N-(3-methoxy-propyl)-methanesulfonamide] displayed a melting point of 149.2 to 150.8 °C.

In the case of `NS(=O)(=O)Cc1ccc(Nc2cc(-c3ccccc3OCc3ccccc3)ncn2)cc1` [Compound 8, {4-[6-(2-Benzyloxy-phenyl)-pyrimidin-4-ylamino]-phenyl}-methanesulfonamide], in data set [1], the “inhibitory effect on Tau phosphorylation at Serin396” value is given as “significant inhibitory effect”.
